≈ marks a conversion by molar mass, not a printed value.
What was measured:
hCA I = molecular target: T1, hCA I (Homo sapiens, UniProt P00915); experiment: stopped-flow CO2 hydration CA inhibition assay; assay type: biochemical; settings: recombinant human CA I; stopped-flow CO2 hydrase assay; errors ±5%, three determinations; read-out: K i CA I
T1 construct: made in house; host or cells: E. coli
Source text: (§1) An Applied Photophysics stopped-flow instrument was used for assaying the CA-catalyzed CO2 hydration activity [26]. IC50 values were obtained from dose response curves working at seven different concentrations of test compound; by fitting the curves using PRISM (http://www.graphpad.com/) and nonlinear least squares methods, values represent the mean of at least three different determinations as described by us previously [27]. The inhibition constants (K i) were then derived by using the Cheng-Prusoff equation [28] as follows: K i = IC50/(1 + [S]/K m), where [S] represents the CO2 concentration at which the measurement was carried out and K m is the concentration of substrate at which the enzyme activity is at half maximal. All enzymes used were recombinant, produced in E. coli as reported earlier [29, 30].

hCA II = molecular target: T2, hCA II (Homo sapiens, UniProt P00918); experiment: stopped-flow CO2 hydration CA inhibition assay; assay type: biochemical; settings: recombinant human CA II; stopped-flow CO2 hydrase assay; errors ±5%, three determinations; read-out: K i CA II
T2 construct: made in house; host or cells: E. coli
Source text: as §1

hCA IV = molecular target: T3, hCA IV (Homo sapiens, UniProt P22748); experiment: stopped-flow CO2 hydration CA inhibition assay; assay type: biochemical; settings: recombinant human CA IV; stopped-flow CO2 hydrase assay; errors ±5%, three determinations; read-out: K i CA IV
T3 construct: made in house; host or cells: E. coli
T3 sequence (P22748 19-312): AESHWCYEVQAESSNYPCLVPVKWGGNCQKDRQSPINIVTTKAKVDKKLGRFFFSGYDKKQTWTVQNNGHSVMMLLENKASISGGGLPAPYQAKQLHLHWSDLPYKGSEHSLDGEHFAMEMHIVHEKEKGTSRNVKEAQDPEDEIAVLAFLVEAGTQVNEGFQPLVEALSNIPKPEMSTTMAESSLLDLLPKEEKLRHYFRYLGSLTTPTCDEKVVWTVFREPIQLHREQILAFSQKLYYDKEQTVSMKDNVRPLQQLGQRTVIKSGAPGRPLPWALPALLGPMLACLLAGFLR
Source text: as §1

hCA IX = molecular target: T4, hCA IX (Homo sapiens, UniProt Q16790); experiment: stopped-flow CO2 hydration CA inhibition assay; assay type: biochemical; settings: recombinant human CA IX; stopped-flow CO2 hydrase assay; errors ±5%, three determinations; read-out: K i CA IX
T4 construct: made in house; host or cells: E. coli
Source text: as §1

hCA XII = molecular target: T5, hCA XII (Homo sapiens, UniProt O43570); experiment: stopped-flow CO2 hydration CA inhibition assay; assay type: biochemical; settings: recombinant human CA XII; stopped-flow CO2 hydrase assay; errors ±5%, three determinations; read-out: K i CA XII
T5 construct: made in house; host or cells: E. coli
T5 sequence (O43570 25-354): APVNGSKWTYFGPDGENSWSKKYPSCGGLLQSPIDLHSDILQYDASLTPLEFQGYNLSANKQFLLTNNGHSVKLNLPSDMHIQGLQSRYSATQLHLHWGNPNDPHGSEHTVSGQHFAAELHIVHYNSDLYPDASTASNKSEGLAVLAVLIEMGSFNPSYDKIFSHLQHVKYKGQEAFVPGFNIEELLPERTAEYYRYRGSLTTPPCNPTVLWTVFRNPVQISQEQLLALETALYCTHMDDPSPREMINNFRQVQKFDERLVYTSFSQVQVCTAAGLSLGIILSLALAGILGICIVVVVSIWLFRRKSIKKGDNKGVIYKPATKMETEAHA
Source text: as §1

hCA XIV = molecular target: T6, hCA XIV (Homo sapiens, UniProt Q9ULX7); experiment: stopped-flow CO2 hydration CA inhibition assay; assay type: biochemical; settings: recombinant human CA XIV; stopped-flow CO2 hydrase assay; errors ±5%, three determinations; read-out: K i CA XIV
T6 construct: made in house; host or cells: E. coli
T6 sequence (Q9ULX7 16-337): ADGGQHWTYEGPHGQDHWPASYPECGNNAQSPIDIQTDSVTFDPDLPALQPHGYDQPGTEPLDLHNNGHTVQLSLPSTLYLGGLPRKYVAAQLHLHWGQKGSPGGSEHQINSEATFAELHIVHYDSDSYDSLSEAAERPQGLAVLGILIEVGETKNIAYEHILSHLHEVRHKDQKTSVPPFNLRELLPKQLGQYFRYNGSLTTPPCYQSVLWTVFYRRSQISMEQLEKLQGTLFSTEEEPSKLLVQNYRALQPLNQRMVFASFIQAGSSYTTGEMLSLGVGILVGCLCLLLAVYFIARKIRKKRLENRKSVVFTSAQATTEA
Source text: An Applied Photophysics stopped-flow instrument was used for assaying the CA-catalyzed CO2 hydration activity [26]. IC50 values were obtained from dose response curves working at seven different concentrations of test compound; by fitting the curves using PRISM (http://www.graphpad.com/) and nonlinear least squares methods, values represent the mean of at least three different determinations as described by us previously [27]. The inhibition constants (K i) were then derived by using the Cheng-Prusoff equation [28] as follows: K i = IC50/(1 + [S]/K m), where [S] represents the CO2 concentration at which the measurement was carried out and K m is the concentration of substrate at which the enzyme activity is at half maximal.

Pseudomonas aeruginosa = system: Pseudomonas aeruginosa; parameters: method as in PMID 22515429; settings: antibacterial, cited from earlier work
[1] = system: drug sensitive Plasmodium falciparum parasite line (3D7); parameters: method as in earlier work; settings: drug sensitive parasite line 3D7; read-out: IC50 towards Plasmodium falciparum 3D7; cited from earlier work

T1 sequence (P00915 whole entry): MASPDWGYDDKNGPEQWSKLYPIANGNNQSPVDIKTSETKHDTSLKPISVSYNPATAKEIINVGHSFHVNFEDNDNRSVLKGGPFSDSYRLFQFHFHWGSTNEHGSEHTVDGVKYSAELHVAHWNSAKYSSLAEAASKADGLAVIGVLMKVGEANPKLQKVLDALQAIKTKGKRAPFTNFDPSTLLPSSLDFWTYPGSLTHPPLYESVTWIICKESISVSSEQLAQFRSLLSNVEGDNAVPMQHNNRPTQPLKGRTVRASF

Ki (hCA I) | Ki (hCA II) | Ki (hCA IV) | Ki (hCA IX) | Ki (hCA XII) | Ki (hCA XIV) | Compound | MIC against Pseudomonas aeruginosa (Pseudomonas aeruginosa) | IC50 (Pseudomonas aeruginosa; read-out: IC50 against Pseudomonas aeruginosa) | IC50 [1]
1760 nM | 410 nM | 6720 nM | 200 nM | 2810 nM | 2120 nM | COc1c(Br)cc(/C=C/C(=O)NCCCNCCCCNCCCN)cc1Br [Polyamine 1, ianthelliformisamine A] | 35 µM (≈ 18.2 µg/mL) | 6800 nM | –
770 nM | 370 nM | 9100 nM | 350 nM | 3480 nM | 2280 nM | COc1c(Br)cc(/C=C/C(=O)NCCCNCCCCN)cc1Br [Polyamine 2, ianthelliformisamine B] | – | – | –
860 nM | 350 nM | 9080 nM | 270 nM | 3500 nM | 6960 nM | COc1c(Br)cc(/C=C/C(=O)NCCCNCCCCNCCCNC(=O)/C=C/c2cc(Br)c(OC)c(Br)c2)cc1Br [Polyamine 3, ianthelliformisamine C] | – | – | –
790 nM | 340 nM | 7030 nM | 360 nM | 4210 nM | 1520 nM | O=C(NCCCCNCCCNC(=O)c1ccc(O)c(O)c1)c1ccc(O)c(O)c1 [Polyamine 5, pistillarin] | – | – | 1900 nM

Compound | Ki (hCA I) | Ki (hCA II) | Ki (hCA IV) | Ki (hCA IX) | Ki (hCA XII) | Ki (hCA XIV) | MIC against Pseudomonas aeruginosa (Pseudomonas aeruginosa) | IC50 (Pseudomonas aeruginosa; read-out: IC50 against Pseudomonas aeruginosa) | IC50 [1]
spermatinamine [Polyamine 4] | 850 nM | 480 nM | > 20000 nM | 340 nM | > 20000 nM | 2720 nM | – | – | 230 nM

Reference: publication PMC4138887, “Natural Product Polyamines That Inhibit Human Carbonic Anhydrases” (BioMed Research International, 2014)
